Experimental data reported in ChEMBL document CHEMBL1800029, “N-aryl-benzimidazolones as novel small molecule HSP90 inhibitors” (Bioorg Med Chem Lett, 2010).

Assays:
[1] = molecular target: T1, Heat shock protein HSP 90-alpha (Homo sapiens, UniProt P07900)
Description: Binding affinity to Hsp90alpha N-terminal ATPase domain by TR-FRET assay based competitive binding assay

[2] = molecular target: T1, Heat shock protein HSP 90-alpha; remark: listed apart in the source
Description: Inhibition of Hsp90alpha ATPase activity by malachite green ATP-ase assay

[3] = molecular target: T1, Heat shock protein HSP 90-alpha; assay: Inhibition of Hsp90alpha in human SKBR3 cells assessed as up-regulation of HSP70 protein by Western blot analysis; format: cell-based, SK-BR-3
[4] = molecular target: T1, Heat shock protein HSP 90-alpha; assay: Inhibition of Hsp90alpha in human SKBR3 cells assessed as ErbB2 degradation by Western blot analysis; format: cell-based, SK-BR-3
SK-BR-3 = assay: Cytotoxicity against human SKBR3 cells; format: functional, cell-based
[5] = molecular target: T1, Heat shock protein HSP 90-alpha; assay: Inhibition of Hsp90alpha in human H1299 cells assessed as HIF-1alpha degradation by luciferase reporter assay; format: cell-based

Structure (SMILES)	IC50 [1]	IC50 [2]	further results
CC(=O)NCc1ccc2c(c1)[nH]c(=O)n2-c1cc(Cl)c(O)cc1O	40 nM	24.8 µM	–
O=C(NCc1ccc2c(c1)[nH]c(=O)n2-c1cc(Cl)c(O)cc1O)c1ccccc1	72 nM	22.9 µM	–
CS(=O)(=O)NCc1ccc2c(c1)[nH]c(=O)n2-c1cc(Cl)c(O)cc1O	50 nM	25.2 µM	–
CCNC(=O)NCc1ccc2c(c1)[nH]c(=O)n2-c1cc(Cl)c(O)cc1O	33 nM	14.2 µM	–
O=C(NCc1ccc2c(c1)[nH]c(=O)n2-c1cc(Cl)c(O)cc1O)Nc1ccccc1	60 nM	15.4 µM	–
O=c1[nH]c2cc(CNS(=O)(=O)c3ccccc3)ccc2n1-c1cc(Cl)c(O)cc1O	27 nM	3.42 µM	–
O=c1[nH]c2cc(CNS(=O)(=O)c3cccc4ccccc34)ccc2n1-c1cc(Cl)c(O)cc1O	–	0.55 µM	EC50 [3]: 60 nM; EC50 [4]: < 100 nM; EC50 (SK-BR-3): 12 nM; EC50 [5]: 190 nM
O=c1[nH]c2cc(CNS(=O)(=O)c3ccc4ccccc4c3)ccc2n1-c1cc(Cl)c(O)cc1O	47 nM	1.14 µM	–
O=c1[nH]c2ccccc2n1-c1cc(C(F)(F)F)ccc1O	2320 nM	127 µM	–
O=c1[nH]c2ccccc2n1-c1ccc(O)cc1O	–	85 µM	–
O=c1[nH]c2ccccc2n1-c1cc(O)ccc1O	34900 nM	200 µM	–
O=c1[nH]c2ccccc2n1-c1cc(Cl)c(O)cc1O	54 nM	15.2 µM	–
O=c1[nH]c2ccccc2n1-c1cc(O)c(Cl)cc1O	2530 nM	200 µM	–
CCNC(=O)c1n[nH]c(-c2cc(Cl)c(O)cc2O)c1-c1ccc(OC)cc1	–	–	EC50 (SK-BR-3): 250 nM
O=c1[nH]c2cc(C(F)(F)F)ccc2n1-c1cc(C(F)(F)F)ccc1O	3320 nM	81 µM	–
C=CCNC1=C2C[C@@H](C)C[C@H](OC)[C@H](O)[C@@H](C)/C=C(\C)[C@H](OC(N)=O)[C@@H](OC)/C=C\C=C(/C)C(=O)NC(=CC1=O)C2=O [TANESPIMYCIN]	–	–	EC50 (SK-BR-3): 25 nM
